Here are results for 1 compound from patent US9884848B2, “Phenyl triazole derivative and its use for modulating the GABAA receptor complex” (SANIONA A/S, priority 2012, dated 2018).

The assay has as its target T1, human GABAA α5β3*γ2s receptors (Homo sapiens, UniProt P18507+P31644).
T1 construct: expressed in transfected cells
The assay is described as follows: In vitro inhibition of 3H-flumazenil binding, HEK cells expressing the human GABAA α5β3*γ2S receptor. As to the method: When the cultures reach confluency, the DMEM is removed and the cells are washed (10 ml for T175 flasks; 50 ml for roller bottles) once in Dulbecco's Phosphate Buffered Saline (DPBS). Following addition of DPBS to the cultures (10 ml for T175 flasks; 100 ml for roller bottles) for approximately 5 min cells are easily detached from the surface by shaking or tapping the flask gently. The cell suspension is transferred to Falcon tubes and centrifuged at 23,500×g for 10 min at 2° C. The pellet is washed once in 15 ml Tris-citrate buffer (50 mM, pH 7.1) using an Ultra-Turrax homogenizer and centrifuged at 2° C. for 10 min at 27,000×g. The washed pellet is re-suspended in 15 ml Tris-citrate buffer and frozen at −80° C. until the day of the binding experiment.
On the day of the experiment the cell membrane preparation is thawed and centrifuged at 2° C. for 10 min at 27,000×g.
Non-specific binding is determined using clonazepam (1 μM, final concentration). […]
The amount of radioactivity on the filters is determined by conventional liquid scintillation counting using a […]
where B is the binding in percentage of total specific binding; C is the concentration of test compound; and n is the Hill coefficient. […] The IC50 value is calculated from the concentration response curves by the non-linear regression method using the curve-fitting program GraphPad Prism.

T1 sequence (P31644 32-462): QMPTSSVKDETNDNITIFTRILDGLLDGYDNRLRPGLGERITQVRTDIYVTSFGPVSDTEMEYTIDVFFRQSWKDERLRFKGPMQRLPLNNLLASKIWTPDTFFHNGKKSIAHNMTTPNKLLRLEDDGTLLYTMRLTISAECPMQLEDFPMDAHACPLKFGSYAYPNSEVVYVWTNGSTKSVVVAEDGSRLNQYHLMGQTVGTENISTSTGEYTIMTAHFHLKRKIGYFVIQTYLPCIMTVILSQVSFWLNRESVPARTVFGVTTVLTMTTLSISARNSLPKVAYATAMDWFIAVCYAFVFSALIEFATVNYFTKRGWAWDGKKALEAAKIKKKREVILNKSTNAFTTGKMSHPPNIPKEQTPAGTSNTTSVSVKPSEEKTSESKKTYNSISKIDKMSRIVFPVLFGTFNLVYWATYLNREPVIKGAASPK
T1 sequence (P18507 40-467 isoform P18507-1 limits assumed): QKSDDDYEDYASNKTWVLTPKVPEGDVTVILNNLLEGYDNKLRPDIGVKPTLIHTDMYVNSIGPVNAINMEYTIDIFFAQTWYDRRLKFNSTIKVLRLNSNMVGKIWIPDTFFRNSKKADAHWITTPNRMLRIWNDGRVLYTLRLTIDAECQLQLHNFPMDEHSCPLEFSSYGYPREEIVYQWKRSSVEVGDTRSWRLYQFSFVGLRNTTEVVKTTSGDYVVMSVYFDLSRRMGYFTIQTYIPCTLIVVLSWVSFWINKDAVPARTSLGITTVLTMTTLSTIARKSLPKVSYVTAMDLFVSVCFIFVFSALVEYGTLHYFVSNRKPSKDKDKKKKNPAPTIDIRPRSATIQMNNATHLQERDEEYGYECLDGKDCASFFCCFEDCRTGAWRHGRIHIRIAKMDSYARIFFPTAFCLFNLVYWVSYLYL

On to `NC(=O)c1ccc(OCc2c(C(F)F)nnn2-c2ccc(F)cc2)nn1` [Compound 1, 6-[[5-(difluoromethyl)-3-(4-fluorophenyl)triazol-4-yl]methoxy]pyridazine-3-carboxamide], for which the inhibition constant Ki is 87 nM.
